From US20240252477A1, “NLRP3 INFLAMMASOME-INHIBITING COMPOUNDS AND THE USE THEREOF” (UNIVERSITA' DEGLI STUDI DI TORINO (60%), priority 2021, published 2024)

Columns and labels:
[1] = Cytotoxicity (MTT assay); assay type: cell-based, human; conditions: human; THP-1 cells, 72 hours' incubation
Procedure: (§1) The THP-1 cells were seeded in a 96-well plate (15.000 cells/well) and incubated with the test compounds at four different concentrations (0.1, 1, 10 and 100 μM), operating in triplicate. The cells were placed in an incubator at 37° C., with 5% CO2, and cell viability was measured after 72 hours' incubation, using the MTT assay. This is a colorimetric assay, based on conversion of water-soluble 3-(4,5-dimethylthiazol-2-yl)-2,5-diphenyltetrazolium bromide (MTT; Sigma-Aldrich) to a violet-coloured insoluble formazan, by the mitochondrial dehydrogenase present in the live cells. The formazan is solubilised in acidified isopropanol, and the concentration is determined by measuring absorbance with a microplate reader (Victor X4—Ensight, PerkinElmer) at λ=570 nm. Viability was expressed as a percentage of the viability of the control cells, which were either untreated or treated with the carrier. The IC50 was calculated with the Graph Pad Prism software.

[2] = test system: SAMP8 mice; assay: SAMP8 mice, model of neurodegenerative disorders (Morris test, brain markers); assay type: in vivo; conditions: SAMP8, 50 mg/kg/day p.o., 2 months
Procedure: Compound INF176 was tested in vivo in an animal model of mice with spontaneous accelerated senescence (SAMP8), used as a model of neurodegenerative disorders such as mild cognitive impairment (MCI), which in most cases evolve to Alzheimer's disease (AD).

[3] = test system: SAMP8 animals; assay: SAMP8 animals: colon transit and colon IL-1β; assay type: in vivo, mice
[4] = test system: colon of SAMP8 animals; assay: Colon contractions elicited by electrical stimuli (in vitro), SAMP8; set-up: species or system mice
[5] = molecular target: T1, NLRP3 inflammasome (Homo sapiens, UniProt Q96P20); assay: NLRP3-dependent pyroptosis (LDH release) in PMA-differentiated THP-1 cells stimulated with LPS/ATP; assay type: cell-based; conditions: compounds at 10 μM for 1 hour, differentiated THP-1, LPS 10 μg/mL 4 hours, ATP 1.5 hours; for inhibition at 10 µM: read-out: Pyroptosis inhibition (% ± SEM)
T1 construct: The THP-1 cells were differentiated into macrophages by treating them with PMA 50 nM; endogenous in cells; host or cells: THP-1 (human monocytic leukaemia line), PMA-differentiated, primed with LPS, triggered with ATP
Procedure: (§2) THP-1 cells, a monocytic human cell line derived from the peripheral blood of a patient suffering from acute monocytic leukaemia (www.atcc.org), were cultured in RPMI 1640 medium (Aurogene, Rome, Italy), with the addition of foetal bovine serum (10%, Aurogene), L-glutamine (2 mM, Aurogene), penicillin (100 IU/ml, Aurogene) and streptomycin ([…], Aurogene). The medium was changed every 2-3 days, and the cells were maintained in an incubator at 37° C., with 5% CO2, and with suitable humidity.
The cells were seeded in 48-well plates (90.000 cells/well), and differentiated with phorbol 12-myristate 13-acetate (PMA—50 nM, 24 hours; Sigma-Aldrich). On the next day, the differentiated THP-1s were washed twice with the balanced saline solution phosphate-buffered saline (PBS), and stimulated with lipopolysaccharide (LPS) (10 μg/mL, 4 hours; Sigma-Aldrich), prepared in serum-free medium. After 4 hours the cells were incubated with the compounds at the concentration of 10 μM for 1 hour, operating in triplicate; INF176 and INF177 were tested at three different concentrations: […]. Finally, the cells were stimulated with ATP 5 mm for 1.5 hours. The supernatants were then harvested for the subsequent analyses.
LDH release into the supernatant obtained as described above was quantified using the CytoTox 96 nonradioactive cytotoxicity assay (Promega Corporation, Madison, […], USA), a colorimetric assay wherein LDH activity is measured with an NADH-dependent enzymatic reaction:
Briefly, an equal volume of CytoTox Reagent was added to the supernatant and, after 30 minutes' incubation, the reaction was stopped by adding the stop solution. The formazan concentration was determined by measuring absorbance, using a microplate reader (Victor X4—EnSight, PerkinElmer, Waltham, MA, USA), at λ=490 nm. Cell death was expressed according to the manufacturer's instructions.
The compound INF176 was tested to measure its ability to inhibit NLRP3-dependent cell pyroptosis in human macrophages, using the experimental protocol previously published [Cocco et al. 2017].
The THP-1 cells were differentiated into macrophages by treating them with PMA 50 nM (24 hours) and then with LPS (10 μg/mL) for 4 hours. The cells were treated with the compound (10 μM) for 1 hour. Pyroptosis was induced by treatment with ATP 5 mm. After 90 minutes, cell death was evaluated by measuring the LDH level in the cell supernatant using the CytoTox 96 Non-Radioactive Cytotoxicity Assay (Promega Corporation, Madison, […], USA).

[6] = molecular target: T1, NLRP3 inflammasome; assay: IL-1β release (ELISA) from differentiated THP-1 cells stimulated with LPS/ATP; assay type: cell-based; conditions: at the maximum concentration tested (FIG. 1B)
Procedure: as §2
The cells were seeded in 48-well plates (90.000 cells/well), and differentiated with phorbol 12-myristate 13-acetate (PMA—50 nM, 24 hours; Sigma-Aldrich). On the next day, the differentiated THP-1s were washed twice with the balanced saline solution phosphate-buffered saline (PBS), and stimulated with lipopolysaccharide (LPS) (10 μg/mL, 4 hours; Sigma-Aldrich), prepared in serum-free medium. […]
IL-1β release into the supernatant of cells treated as described above was determined with the Human IL-1 beta Uncoated ELISA kit (Invitrogen, Waltham, MA, USA), according to the manufacturer's instructions. […]
The interleukin levels were determined by measuring absorbance at X=450 nm, using a microplate reader (Victor X4—EnSight).

[7] = test system: murine model of colitis induced by dextran sodium sulphate (DSS); assay: Colitis induced by dextran sodium sulphate (DSS), murine model; assay type: in vivo; conditions: 25 mg/kg/day and 50 mg/kg/day p.o.
Procedure: In particular, oral administration (p.o.) of INF176 at the doses of 25 mg/kg/day and 50 mg/kg/day gave rise to an improvement in the systemic and tissue parameters associated with colitis (FIGS. 2-3).

[8] = test system: THP-1 cells; assay: Cytotoxicity (MTT assay); assay type: cell-based, human
Procedure: as §1

[9] = Stability in PBS pH 7.4 with excess glutathione or cysteamine (HPLC); assay type: physicochemical; conditions: 100 μM, PBS pH 7.4, 37° C.
Procedure: The compound INF177 was incubated at the concentration of 100 μM in PBS pH 7.4 (0.1% DMSO) at 37° C., in the absence and in the presence of excess glutathione or cysteamine (10×). The reaction mixture underwent repeated HPLC analyses over 24 hours.
The HPLC analysis was conducted with an HP 1200 chromatography system (Agilent Technologies, Palo Alto, CA, USA) consisting of an integrated quaternary pump (model G1311A), degasser (model G1322A), UV MWD detector (model G1365D) and fluorescence detector (model G1321A). The data were processed with the HP ChemStation system program (Agilent Technologies).
The analyses were conducted using the ZORBAX SB-Phenyl column (250×4.6 mm, 5 μm; Agilent) as stationary phase and CH3CN/H2O (+0.1% HCOOH), 70/30 (v/v), flow rate=1.0 mL/min, as mobile phase, injecting 20 μL of sample (Rheodyne, Cotati, CA); the chromatograms were acquired at the wavelengths of 234 and 250 nm.

[10] = molecular target: T2, IL-1beta (Homo sapiens, UniProt P01584); conditions: cited from earlier work
T2 construct: host or cells: patients (clinical trial)

T1 sequence (Q96P20 whole entry): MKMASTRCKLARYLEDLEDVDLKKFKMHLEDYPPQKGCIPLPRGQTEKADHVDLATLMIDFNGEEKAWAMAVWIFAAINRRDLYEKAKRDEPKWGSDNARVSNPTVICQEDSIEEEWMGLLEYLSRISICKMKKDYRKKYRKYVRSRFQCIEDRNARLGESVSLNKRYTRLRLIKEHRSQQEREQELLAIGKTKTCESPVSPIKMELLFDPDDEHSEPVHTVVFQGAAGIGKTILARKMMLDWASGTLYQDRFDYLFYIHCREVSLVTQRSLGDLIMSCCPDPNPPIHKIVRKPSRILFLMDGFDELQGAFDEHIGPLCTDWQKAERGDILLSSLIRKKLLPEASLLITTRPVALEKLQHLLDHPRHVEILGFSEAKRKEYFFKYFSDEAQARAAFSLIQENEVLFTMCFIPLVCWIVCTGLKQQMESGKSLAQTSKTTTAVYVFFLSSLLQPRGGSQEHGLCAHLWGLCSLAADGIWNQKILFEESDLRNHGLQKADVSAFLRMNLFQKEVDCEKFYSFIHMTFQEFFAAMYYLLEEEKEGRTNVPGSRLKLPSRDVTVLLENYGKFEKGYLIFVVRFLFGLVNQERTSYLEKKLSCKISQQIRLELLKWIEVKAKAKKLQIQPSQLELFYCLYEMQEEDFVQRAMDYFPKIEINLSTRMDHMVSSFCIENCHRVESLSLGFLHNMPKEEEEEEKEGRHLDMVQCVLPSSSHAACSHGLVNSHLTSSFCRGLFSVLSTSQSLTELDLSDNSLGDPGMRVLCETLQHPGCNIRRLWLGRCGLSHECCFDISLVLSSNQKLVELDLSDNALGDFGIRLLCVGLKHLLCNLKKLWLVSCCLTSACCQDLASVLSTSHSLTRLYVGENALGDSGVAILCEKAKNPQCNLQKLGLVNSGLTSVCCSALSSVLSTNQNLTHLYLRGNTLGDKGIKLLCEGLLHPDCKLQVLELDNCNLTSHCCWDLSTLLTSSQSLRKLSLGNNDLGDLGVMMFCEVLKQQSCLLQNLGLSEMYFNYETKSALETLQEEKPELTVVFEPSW

CCOC(=O)C1CCCN(C(=O)/C(=C/c2ccccc2Cl)CSc2ccccc2)C1 (centres unmarked) [INF176, ethyl (Z)-1-(3-(2-chlorophenyl)-2-((phenylthio)methyl)acryloyl)piperidine-3-carboxylate]
IC50 at 72 h [1]: 94.2 ± 6.9 µM
cognitive decline (Morris test: escape latency, crossings in quadrant, entries into quadrant) [2]: significantly counteracts cognitive decline
expression of p-tau protein in brain tissues [2]: significantly reduces expression of p-tau protein
colon transit (pellets expelled in 1 hour) ([3]; SAMP8, 50 mg/kg (FIG. 5A)): improves slowing of colon transit
IL-1β levels in the colon ([3]; SAMP8, 50 mg/kg (FIG. 6)): reduces the increase in IL-1β levels
cholinergic colon contractions ([4]; SAMP8, 50 mg/kg (FIG. 5)): significantly enhancing
tachykininergic colon contractions ([4]; SAMP8, 50 mg/kg (FIG. 5)): significantly enhancing
colon contractions elicited by electrical stimuli ([4]; SAMP8, 50 mg/kg (FIG. 5B)): significantly improves
inhibition at 10 µM [5]: 45.2 ± 7.2%
inhibition of IL-1beta release from human macrophages [6]: 35±1.2%
body weight (weight loss) [7]: counteracts weight loss
disease activity index (DAI) [7]: significantly reduces
interleukin-1beta levels in colon tissues [7]: significantly reduces
myeloperoxidase levels in colon tissues [7]: significantly reduces
spleen weight [7]: counteracts weight loss and increased spleen weight

(Z)-3-(2-chlorophenyl)-2-((phenylthio)methyl)acrylic acid [INF80]
IC50 [8]: 92.8 ± 1.6 µM
Pyroptosis inhibition (% ± SEM) [5]: <10%

NC(=O)C1CCCN(C(=O)/C(=C/c2ccccc2Cl)CSc2ccccc2)C1 (centres unmarked) [INF219, (Z)-1-(3-(2-chlorophenyl)-2-((phenylthio)methyl)acryloyl)piperidine-3-carboxamide]
melting point: 60.5 to 61.4 °C
IC50 at 72 h [1]: > 100 µM
inhibition at 10 µM [5]: 13 ± 8.2%

O=C(O)C1CCCN(C(=O)/C(=C/c2ccccc2Cl)CSc2ccccc2)C1 (centres unmarked) [INF177, (Z)-1-(3-(2-chlorophenyl)-2-((phenylthio)methyl)acryloyl)piperidine-3-carboxylic acid]
IC50 at 72 h [1]: > 100 µM
reactivity towards glutathione or cysteamine ([9]; 10× excess thiol, over 24 hours): no appreciable reactivity was observed
% compound remaining ([9]; cysteamine 10×, after 2.5 hours): > 98%
% compound remaining ([9]; glutathione 10×, after 4 hours): > 98%
% compound remaining ([9]; glutathione or cysteamine 10×, 24 hours): ≥ 96%
inhibition at 10 µM [5]: 20.1 ± 9.8%

canakinumab
reduction in lung cancer deaths ([10]; after treatment with canakinumab): 77%
change in mortality due to cardiovascular events ([10]; patients at cardiovascular risk): −31%

O=C(O)/C(=C/c1ccccc1Cl)CSC1CCCCC1 [INF86, (Z)-3-(2-chlorophenyl)-2-((cyclohexylthio)methyl)acrylic acid]
IC50 at 72 h [1]: > 100 µM
inhibition at 10 µM [5]: < 10%

CCOC(=O)/C(=C/c1ccccc1Cl)CSCC(NC(C)=O)C(=O)O (centres unmarked) [INF85]
IC50 at 72 h [1]: > 100 µM
inhibition at 10 µM [5]: 21.3 ± 4.6%

CCOC(=O)C1CCN(C(=O)C(CSC2CCCCC2)Cc2ccccc2Cl)CC1 (centres unmarked) [INF193, ethyl 1-(2-(2-chlorobenzyl)-3-(cyclohexylthio)propanoyl)piperidine-4-carboxylate]
IC50 at 72 h [1]: 77.5 ± 7.3 µM
inhibition at 10 µM [5]: < 10%

CCOC(=O)C(CSCC(NC(=O)OC(C)(C)C)C(=O)OC)Cc1ccccc1Cl (centres unmarked) [INF55, ethyl 3-((2-((tert-butoxycarbonyl)amino)-3-methoxy-3-oxopropyl)thio)-2-(2-chlorobenzyl)propanoate]
IC50 at 72 h [1]: > 100 µM
inhibition at 10 µM [5]: < 10%

CCOC(=O)C1CCCN(C(=O)/C(=C/c2ccccc2Cl)CSC2CCCCC2)C1 (centres unmarked) [INF194, ethyl (Z)-1-(3-(2-chlorophenyl)-2-((cyclohexylthio)methyl)acryloyl)piperidine-3-carboxylate]
IC50 at 72 h [1]: 78.3 ± 10.2 µM
inhibition at 10 µM [5]: < 10%
